How the values were obtained:
[1] = system: murine model of acquired epilepsy triggered by de novo status epilepticus; test: Effect of reparixin on onset and development of epilepsy (intra-amygdala kainic acid status epilepticus, EEG recording); assay type: in vivo, C57BL6/N male mice
Experimental: A murine model of acquired epilepsy triggered by de novo status epilepticus was used in the experiments (lori et al, Neurobiol Dis 2017, 99 12-23).
In details, eight week-old C57BL6/N male mice (˜25 g; Charles River, calco, Italy) were used. Mice were maintained in SPF facilities and housed at a constant room temperature (23° c) and relative humidity (60±5%) with free access to food and water and a fixed 12 h light/dark cycle. All experimental procedures were conducted in conformity with institutional guidelines that are in compliance with national (D.L. n.26, G.U. Mar. 4, 2014) and international laws and policies (EEC council directive 86/609, OJ L 358, 1, Dec. 12, 1987, guide for the care and use of laboratory animals, U.S. national research council, 1996), and were reviewed and approved by the intramural ethical committee.
Mice were surgically implanted under general gas anaesthesia (1-3% isoflurane in O2) and stereotaxic guidance. A 23-gauge guide cannula was unilaterally positioned on top of the dura mater for the intra-amygdala injection of kainic acid (KA) (from bregma, mm: nose bar 0; anteroposterior, −0.9; lateral, −3.1) in accordance with lori et al. (2017).
For seizure recording, a nichrome-insulated bipolar depth electrode (60 μm OD) was implanted in the dorsal hippocampus (from bregma, mm: nose bar 0; anteroposterior—1.8, lateral 1.4 and 1.8 below dura mater) contralateral to the injected amygdala and a cortical electrode was placed onto the somatosensory cortex in the ipsilateral hemisphere. Finally, two screw electrodes were positioned over the nasal sinus and the cerebellum, and used as ground and reference electrodes, respectively. Electrodes were connected to a multipin socket and secured to the skull by acrylic dental cement.
Minipumps (Alzet pump 1007D, 100 μ/minipump or Alzet pump 2002, 200 μ/minipump; Charles River, Calco, Italy) filled with reparixin dissolved in a vehicle consisting in sterile saline (NaCl 0.9%) solution (vehicle) (reparixin group) or vehicle (sham control group and vehicle group) were implanted subcutaneously in the back of the mice. Briefly, a small incision was made in the skin between the scapulae and a pocket was formed by spreading apart the connective tissues. After minipump positioning, the skin was carefully sutured to avoid any discomfort to the animal.
One week after surgery, mice were connected to the EEG set up (TWIN EEG recording system connected with a comet AS-40 32/8 amplifier:sampling rate 400 hz, high-pass filter 0.3 hz, low-pass filter 70 hz, sensitivity 2000 my/cm; Grass-telefactor, West Warwick, USA) in order to record an EEG baseline before the induction of status epilepticus (SE). […]
Reparixin, at the dose of 7.5 mg/h/kg (reparixin group), or vehicle (sham and vehicle group) were administered by continuous infusion using osmotic minipumps as described in example 1b).
After 24 hours from infusion, status epilepticus was induced in the vehicle group and reparixin group by amygdal injection of kaininc acid.
In details, kainic acid (KA, 0.3 μg in 0.2 μl; Sigma-Aldrich, S. Louis, USA) was dissolved in […] phosphate-buffered saline (PBS, pH 7.4) and injected into the right basolateral amygdala in freely moving mice using a needle protruding 4.1 mm below the implanted cannula in order to evoke SE. SE was defined by the appearance of continuous spike activity with a frequency>1 Hz intermixed with high amplitude and frequency discharges lasting for at least 5 s, with a frequency of >8 Hz. […]

[2] = system: chronic epileptic mice with established spontaneous seizures; test: Effect of reparixin on established seizures in chronic epileptic mice; assay type: in vivo
Experimental: The objective of this experiment was to assess whether reparixin affects seizure frequency or duration in chronic epileptic mice with established spontaneous seizures. Status epilepticus was induced in 18 mice prepared as described in Example 1a) by amygdala injection of kainic acid and EEG was recorded for 14 days to determine disease onset as described in Example 2. Then, mice were disconnected from EEG and returned to their home cages until day 45 at which time they were again EEG recorded for 14 days to determine their individual baseline of spontaneous seizures. At the end of this period, mice were temporarly disconnected for minipumps implantation. Minipumps (ALZET model 2002; 0.5 μl/h) were filled with Reparixin (7.5/mg/h/kg, n=9) or its vehicle (n=9) according to the manifacturer's instructions and implanted subcutaneously in the back of the mice under general gas anaesthesia (1-3% isoflurane in O2). Upon awakening from anesthesia, mice were returned to their home cages for monitoring the EEG for additional 14 days during treatment. At the end of treatment period (as determined by minipump exhaustion) venous blood was collected from the cheek and plasma was isolated for drug level measurement. Mice were subsequently monitored during a drug wash-out period of 14 days. A group of sham mice (not exposed to SE but handled as experimental mice) were implanted with minipumps filled with vehicle (n=6).

acetylated alpha-tubulin = test: Acetylated alpha-tubulin immunostaining in hippocampus after SE; assay type: in vivo, C57BL6/N male mice; conditions: as assessed 48 h and 72 h after SE; 7.5 mg/h/kg minipump; reparixin n=7, vehicle n=4
Experimental: (§1) A cohort of animals was prepared in accordance to Example 1 to study the effects of reparixin on the acetylated alpha-tubulin, a pharmacodynamic marker of drug's neuroprotective effect, and on degenerating neurons, as identified by Fluoro-Jade staining.
(§2) vehicle group (n=6) and reparixin group (n=7). Sham mice (implanted with electrodes but not exposed to SE) were used as controls (n=6).
(§3) The animals of the different groups were treated as described in Example 2.
[…] Brains were post-fixed for 90 min in 4% PFA in PBS at 4° C., then transferred to 20% sucrose in PBS overnight at 4° C. and then frozen in n-pentane for 3 min at −43° C. and stored at −80° C. until assay. Serial coronal sections (40 μm) were cut on a cryostat throughout the extension of the hippocampus (from bregma −1.22 to −2.54 mm).
(§4) Sections were processed to measure both degenerating neurons with Fluoro-Jade and acetylated alpha-tubulin (marker of microtubule stability) as described below. Three slices for each animal's brain in each experimental group/marker were matched for anteroposterior level and processed.
Slices were blocked for 30 min at 4° C. in blocking buffer (0.1% Triton-X100, 3% BSA in PBS; Invitrogen) then incubated with primary antibody against acetylated alpha-tubuline 1:2000 (#24610 Abcam) overnight at 4 C. […]

[3] = system: Fluoro-Jade-positive degenerating neurons; test: Fluoro-Jade staining of degenerating neurons in hippocampus after SE; assay type: in vivo, C57BL6/N male mice; conditions: 72 h post-SE
Experimental: as §1, §2, §3
All mice were transcardially perfused 72 h post-SE with ice-cold phosphate buffered saline (PBS, pH 7.4), followed by 4% paraformaldehyde (PFA) in PBS. Brains were post-fixed for 90 min in 4% PFA in PBS at 4° C., then transferred to 20% sucrose in PBS overnight at 4° C. and then frozen in n-pentane for 3 min at −43° C. and stored at −80° C. until assay. Serial coronal sections (40 μm) were cut on a cryostat throughout the extension of the hippocampus (from bregma −1.22 to −2.54 mm).
as §4
Labeling was carried out as previously described (Ravizza et al., 2008). Briefly, sections were dried in ethanol (100%, 75% and 50%) and rehydrated in distilled water. […]

SMILES: CC(C)Cc1ccc([C@@H](C)C(=O)NS(C)(=O)=O)cc1 [reparixin, R-(-)-2-(4-isobutylphenyl)propionyl methansulfonamide]
- onset time of SE ([1]; 7.5 mg/h/kg continuous s.c. minipump infusion started 24 h before kainic acid, vs vehicle group, n=24/group): did not modify
- onset of spontaneous seizures (epilepsy onset, Kaplan-Meyer curve) ([1]; 7.5 mg/h/kg minipump for 7 days post-SE, p<0.05 Log-rank test vs vehicle): significant delay
- incidence of acute symptomatic seizures during 48 h post-SE ([1]; 7.5 mg/h/kg minipump, all animals exposed to SE, p<0.05 by Fisher's test vs vehicle (62% of mice)): 20 % of mice
- number of spontaneous recurrent seizures (SRS) during drug treatment ([1]; 48 h-7 d post-SE, vs vehicle group, p<0.05 Mann-Whitney test): significant reduction
- mice that died during epilepsy development ([1]; reparixin group n=9, vehicle group 3 out of 12 died because of severe seizures): 1 out of 9
- average SRS duration ([2]; 7.5 mg/h/kg s.c. minipump for 14 days, n=9): not modified
- reduction of the number of spontaneous seizures compared to pre-injection baseline ([2]; 7.5 mg/h/kg s.c. minipump for 14 days, n=9, p<0.05 one-way ANOVA, Tukey's test): about 50%
- responders (at least 30% seizure reduction during treatment vs pre-treatment baseline) ([2]; 7.5 mg/h/kg s.c. minipump for 14 days, waterfall plot): 7 out of 9
- number of seizures upon drug discontinuation ([2]; drug wash-out period of 14 days): returned to pre-injection baseline level
- immunohistochemical signal of acetylated alpha-tubulin in the mouse hippocampus (acetylated alpha-tubulin): significantly reduced
- mice without Fluoro-Jade positive neurons in CA4 ([3]; vehicle 1 out of 5 without neurodegeneration, p=0.29 by Fisher test): 4 out of 7
- mice without Fluoro-Jade positive neurons in CA1 pyramidal cell layer ([3]; vehicle 5 out of 5 showed neurodegeneration, p<0.05 by Fisher test): 5 out of 7

From patent publication US20240156757A1, “CXCL8 INHIBITOR AND PHARMACEUTICAL COMPOSITION THEREOF FOR USE IN THE TREATMENT OF SEIZURES” (DOMPE' FARMACEUTICI SPA, priority 2021, published 2024)
